For one assay, the target named is T1, monoamine oxidase MAO-A (Homo sapiens, UniProt P21397).
T1 sequence (P21397 1-527): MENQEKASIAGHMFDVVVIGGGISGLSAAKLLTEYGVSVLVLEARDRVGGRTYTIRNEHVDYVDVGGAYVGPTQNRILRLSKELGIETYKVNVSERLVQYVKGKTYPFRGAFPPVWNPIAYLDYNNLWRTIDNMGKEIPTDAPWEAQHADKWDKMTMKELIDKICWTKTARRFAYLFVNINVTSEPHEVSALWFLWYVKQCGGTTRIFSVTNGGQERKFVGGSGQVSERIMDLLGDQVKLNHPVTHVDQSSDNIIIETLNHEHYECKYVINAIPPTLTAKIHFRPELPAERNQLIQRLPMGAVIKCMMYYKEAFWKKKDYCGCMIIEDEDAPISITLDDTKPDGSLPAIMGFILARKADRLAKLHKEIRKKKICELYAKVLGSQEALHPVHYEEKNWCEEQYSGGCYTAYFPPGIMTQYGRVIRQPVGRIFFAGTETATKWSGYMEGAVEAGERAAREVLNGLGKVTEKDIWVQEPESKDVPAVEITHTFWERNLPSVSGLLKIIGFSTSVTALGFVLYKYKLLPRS
The assay is described as follows: Small-scale screening on monoamine oxidase MAO-A with temperature jump (MAO-A-Glo Assay). The assay is classed as biochemical. The conditions noted are these: temperature jump 69.2° C; plant-derived compound library (1 to 34). The procedure: Also, the monoamine oxidase MAO-A was studied as a way to set the upper-limit temperatures and lower-limit temperatures in FIG. 11 to FIG. 13. FIG. 20 is a figure showing the study results on upper-limit temperature and lower-limit temperature for the monoamine oxidase MAO-A. It should be noted that the test was conducted according to the product manual for Promega's MAO-A-Glo™ Assay Systems. It should be noted that the relative enzymatic activity was calculated based on the enzymatic activity at 40° C. being 1.0.
As a result, for the […] MAO-A, the upper-limit temperature of 76.4° C. and lower-limit temperature of 62.0° C. were calculated as temperature conditions based on the measured data, as shown in FIG. 20. Consequently, the setpoint heating temperature for the temperature jump test was set to 69.2° C. FIG. 21 is a figure showing the small-scale inhibitor screening results with respect to the monoamine oxidase MAO-A.

The target in the next assay is Kinase DYRK1A (Homo sapiens, UniProt Q13627). The assay is described as follows: Kinase DYRK1A enzymatic activity (Kinase Glo, remaining ATP) with or without heating/quick cooling (temperature jump). Format: biochemical. The conditions noted are these: for inhibitory effect specific to the folding intermediate undergoing heating/cooling: with versus without heating/cooling (temperature jump); for inhibitory effect on the complete protein that was not heated/cooled: no heating/cooling (conventional evaluation). As for the experimental part: Lastly, in the embodiment, the effect of the presence of the candidate functional substance in influencing the function of the protein is determined (step C). For example, what is determined is, such as, inhibitory effect when searching for an inhibitor, accelerative effect when searching for an accelerator, coagulative effect when searching for a coagulant, stabilizing effect when searching for a stabilizer, or activating effect when searching for an activator, as a functional substance. […] As an example, in this process a determination can be made by using the Promega Kinase Glo assay kit, etc., to quantify the amount of ATP remaining in the tube, and thereby measuring its enzymatic activity. It should be noted that the determination of inhibitory effect is not limited to one based on use of the aforementioned kit, etc.
• Kinase DYRK1A protein mass: 25 ng • DMSO concentration: 0.3% in 25 μL • ATP/substrate peptide (DYRKtide peptide: amino-acid sequence […]) concentration: 5 μM each • Volume at enzymatic reaction: 25 μL • Volume in thermal cycler (Biometra TAdvanced Model 96SG): 15 μL • Enzymatic reaction period: 2 hrs.
• 1. The DYRK1A protein, inhibitors (solvent DMSO alone was added in the case of “Inhibitor 0 μM”), buffer (final concentrations: 5 mM MOPS pH7.2, 2.5 mM beta-glycerol-phosphate, 5 mM MgCl2, 1 mM EGTA, 0.4 mM EDTA, 0.05 mM DTT) and ultrapure water were mixed in tubes placed in a white 96-well PCR plate. [Volume: 15 μL, DYRK1A protein mass: 25 ng, inhibitor concentration: 30 μM] • 2. The plate was set in a thermal cycler and heated for 20 seconds at each heating temperature, and then cooled for 10 seconds at 3° C. [Rate of heating/rate of cooling both 8° C./sec.] • 3. Upon completion of cooling, it was removed immediately and 10 μL of ATP/substrate peptide mixture solution was added. [Volume: 15 μL→25 μL, ATP/substrate peptide concentration 5 μM] • 4. It was set in the thermal cycler again to cause enzymatic reaction for 2 hours […] at 20° C. • 5. It was picked up from the thermal cycler and 25 μL of Kinase Glo reaction solution was added, and from the resulting luminescence value, the remaining amount of ATP was measured to evaluate the enzymatic activity. [Volume: 25 μL 50 μL]

The target in a further assay is T2, DYRK1A in HEK293 cells (Homo sapiens, UniProt Q13627).
T2 construct: endogenous in cells; host or cells: HEK293
The assay is described as follows: Western blotting detection of DYRK1A in cultured cell line HEK293. Conditions: HEK293 cultured for 4 days in the presence of compound. Format: cell-based. The procedure: To be more specific, a study was conducted by western blotting using the cultured cell line HEK293.

The target in the next assay is kinase DYRK1B (Homo sapiens, UniProt Q9Y463). In words: Kinase DYRK1B inhibitory activity with and without heating/cooling. The conditions noted are these: for inhibitory activity without heating/cooling: complete protein not heated/cooled; for inhibitory effect specific to the folding intermediate undergoing heating/cooling: with versus without heating/cooling. Format: biochemical. The procedure: Consequently, the setpoint heating temperature for the temperature jump test was set to 62.0° C. […] Consequently, the setpoint heating temperature for the temperature jump test was set to 52.0° C.

A further assay addresses kinase SRC (Homo sapiens, UniProt P12931). The assay is described as follows: Kinase SRC inhibitory activity with and without heating/cooling. The assay is classed as biochemical. The conditions noted are these: for inhibitory activity on SRC compared with DYRK1A: temperature jump; for inhibition of kinase SRC: with and without heating/cooling, IC80 concentration for temperature-jump inhibition of DYRK1A. The procedure:
(§1) Here, inhibitory effects on other kinases were studied.
(§2) As a result, for the kinase DYRK1A, the upper-limit temperature of 67.0° C. and lower-limit temperature of 57.5° C. were calculated as temperature conditions based on the measured data, as shown in FIG. 16. Consequently, the setpoint heating temperature for the temperature jump test was set to 62.0° C. […] Consequently, the setpoint heating temperature for the temperature jump test was set to 53.7° C. Also, for the kinase SRC, the upper-limit temperature of 59.6° C. and lower-limit temperature of 51.4° C. were calculated as temperature conditions based on the measured data, as shown in FIG. 18. Consequently, the setpoint heating temperature for the temperature jump test was set to 55.5° C. Also, for the kinase ABL, the upper-limit temperature of 55.6° C. and lower-limit temperature of 47.3° C. were calculated as temperature conditions based on the measured data, as shown in FIG. 19. Consequently, the setpoint heating temperature for the temperature jump test was set to 52.0° C.

The target of the next assay is ABL in HEK293 cells (Homo sapiens, UniProt P00519). In words: Western blotting detection of ABL in cultured cell line HEK293. Conditions: HEK293 cultured for 4 days in the presence of compound.
For the next assay, the target named is kinase ABL (Homo sapiens, UniProt P00519). In words: Kinase ABL inhibitory activity with and without heating/cooling. The assay is classed as biochemical. As for the experimental part:
as §1, §2

Chain of kinase DYRK1B (Q9Y463 whole entry): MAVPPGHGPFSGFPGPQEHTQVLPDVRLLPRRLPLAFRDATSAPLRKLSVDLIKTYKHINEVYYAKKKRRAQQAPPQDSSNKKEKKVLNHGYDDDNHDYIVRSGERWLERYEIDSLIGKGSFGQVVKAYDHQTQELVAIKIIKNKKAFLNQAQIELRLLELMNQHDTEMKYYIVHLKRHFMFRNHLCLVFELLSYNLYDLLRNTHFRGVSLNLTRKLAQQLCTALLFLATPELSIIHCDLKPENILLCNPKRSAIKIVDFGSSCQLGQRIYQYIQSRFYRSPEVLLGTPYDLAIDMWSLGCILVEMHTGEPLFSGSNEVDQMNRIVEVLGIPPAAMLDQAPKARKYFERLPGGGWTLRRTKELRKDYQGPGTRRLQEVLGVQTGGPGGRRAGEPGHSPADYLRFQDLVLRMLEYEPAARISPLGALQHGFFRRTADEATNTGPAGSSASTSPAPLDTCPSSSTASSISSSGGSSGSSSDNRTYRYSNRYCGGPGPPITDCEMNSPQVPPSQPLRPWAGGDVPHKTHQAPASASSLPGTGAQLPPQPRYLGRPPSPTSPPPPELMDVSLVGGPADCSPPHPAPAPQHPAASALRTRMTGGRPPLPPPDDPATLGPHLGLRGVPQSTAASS
Chain of kinase SRC (P12931 whole entry): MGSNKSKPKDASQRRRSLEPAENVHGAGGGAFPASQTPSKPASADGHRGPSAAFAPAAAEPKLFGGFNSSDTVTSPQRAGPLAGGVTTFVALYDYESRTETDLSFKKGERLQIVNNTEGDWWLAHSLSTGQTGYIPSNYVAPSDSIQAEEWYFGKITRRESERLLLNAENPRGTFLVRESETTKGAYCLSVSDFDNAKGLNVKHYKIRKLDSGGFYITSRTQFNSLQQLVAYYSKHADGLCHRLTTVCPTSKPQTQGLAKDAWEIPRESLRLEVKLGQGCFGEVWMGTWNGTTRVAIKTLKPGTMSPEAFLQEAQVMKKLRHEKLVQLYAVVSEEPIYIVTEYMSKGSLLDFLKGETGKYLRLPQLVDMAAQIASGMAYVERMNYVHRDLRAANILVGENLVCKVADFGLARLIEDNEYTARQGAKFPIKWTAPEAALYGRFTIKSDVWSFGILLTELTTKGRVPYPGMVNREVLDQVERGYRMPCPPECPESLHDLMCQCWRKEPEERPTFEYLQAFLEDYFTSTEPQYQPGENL
Chain of kinase ABL (P00519 whole entry): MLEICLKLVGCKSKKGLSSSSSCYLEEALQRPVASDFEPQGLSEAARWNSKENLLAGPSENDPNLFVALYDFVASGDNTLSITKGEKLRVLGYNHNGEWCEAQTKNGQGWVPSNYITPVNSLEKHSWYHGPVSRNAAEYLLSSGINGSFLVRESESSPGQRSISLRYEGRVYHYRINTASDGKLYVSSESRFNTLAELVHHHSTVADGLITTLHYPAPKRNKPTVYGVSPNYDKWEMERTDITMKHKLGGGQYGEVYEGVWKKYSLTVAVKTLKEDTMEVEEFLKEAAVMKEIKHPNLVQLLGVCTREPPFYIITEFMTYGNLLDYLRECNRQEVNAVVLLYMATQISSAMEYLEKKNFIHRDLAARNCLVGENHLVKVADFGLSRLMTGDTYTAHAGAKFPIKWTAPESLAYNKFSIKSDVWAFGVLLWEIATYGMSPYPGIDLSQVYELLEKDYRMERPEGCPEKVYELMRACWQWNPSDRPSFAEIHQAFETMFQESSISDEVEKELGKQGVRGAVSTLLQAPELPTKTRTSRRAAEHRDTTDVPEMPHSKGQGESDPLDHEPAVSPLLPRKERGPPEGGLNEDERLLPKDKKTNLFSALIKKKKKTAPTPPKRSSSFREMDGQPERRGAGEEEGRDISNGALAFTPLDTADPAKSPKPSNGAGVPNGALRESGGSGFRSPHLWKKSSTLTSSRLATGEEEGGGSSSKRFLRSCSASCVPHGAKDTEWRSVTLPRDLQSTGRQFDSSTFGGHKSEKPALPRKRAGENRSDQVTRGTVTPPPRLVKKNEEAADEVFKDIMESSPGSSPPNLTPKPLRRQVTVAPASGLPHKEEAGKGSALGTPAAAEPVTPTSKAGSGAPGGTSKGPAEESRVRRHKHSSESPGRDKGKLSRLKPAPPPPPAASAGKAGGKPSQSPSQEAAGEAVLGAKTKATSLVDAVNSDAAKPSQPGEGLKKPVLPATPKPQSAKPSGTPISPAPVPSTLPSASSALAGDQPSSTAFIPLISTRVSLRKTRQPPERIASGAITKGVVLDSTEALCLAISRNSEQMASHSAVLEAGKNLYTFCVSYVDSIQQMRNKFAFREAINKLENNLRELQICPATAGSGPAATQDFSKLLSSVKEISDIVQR
Chain of ABL in HEK293 cells (P00519 whole entry): as above
Method for ABL in HEK293 cells: Additionally, a western blotting detection using the cultured cell line HEK293 was conducted. […] Using the SDS-PAGE and western blotting methods, ABL and GAPDH were detected using antibodies specific to the two.

As for `O=C(O[C@H]1Cc2ccccc2C[C@H]1OC(=O)c1cc(O)c(O)c(O)c1)c1cc(O)c(O)c(O)c1` [compound No. 2], the “temperature jump-dependent inhibitory activity on MAO-A” value on monoamine oxidase MAO-A is reported as “temperature jump-dependent inhibitory activity was confirmed”. Further, the “inhibitory effect specific to the folding intermediate undergoing heating/cooling” value at Kinase DYRK1A is “exhibited a specific inhibitory effect only with the folding intermediate”. The “DYRK1A band in western blotting (activity to decompose/remove DYRK1A)” value on DYRK1A in HEK293 cells was “became fainter”.

For the compound `COc1ccc2c(c1)[nH]c1c(C)nccc12` [Harmine], at Kinase DYRK1A, the “inhibitory effect on the complete protein that was not heated/cooled” value is reported as “exhibited an inhibitory effect” and the “inhibitory effect specific to the folding intermediate undergoing heating/cooling” value is given as “did not exhibit a specific inhibitory effect”. In addition, at kinase DYRK1B, the “inhibitory activity without heating/cooling” value is “exhibited an inhibitory effect” and the “inhibitory effect specific to the folding intermediate undergoing heating/cooling” value is given as “did not exhibit a specific inhibitory effect”.

For `CCOc1cc(/C=C2\SC(=S)NC2=O)ccc1O` [RD0392], on Kinase DYRK1A, the “inhibitory effect on the complete protein that was not heated/cooled” value is “exhibited an inhibitory effect” and the “inhibitory effect specific to the folding intermediate undergoing heating/cooling” value was “did not exhibit a specific inhibitory effect”. On kinase DYRK1B, the “inhibitory activity without heating/cooling” value is listed as “exhibited an inhibitory effect” and the “inhibitory effect specific to the folding intermediate undergoing heating/cooling” value is on record as “did not exhibit a specific inhibitory effect”.

Regarding `COc1ccc(/C=C2\SC(=S)NC2=O)cc1C#C[Si](C)(c1ccccc1)c1ccccc1` [compound 168], at kinase SRC, the “inhibitory activity on SRC compared with DYRK1A” value is reported as “weaker than those on DYRK1A” and the “inhibition of kinase SRC” value was “inhibited the kinase SRC in a temperature jump-dependent manner”.

On to `COc1ccc(/C=C2\SC(=S)NC2=O)cc1C#C[Si](C)(C)C` [FINDY], for which, on kinase SRC, the “inhibitory activity on SRC compared with DYRK1A” value is recorded as “weaker than those on DYRK1A” and the “inhibition of kinase SRC” value is recorded as “inhibited the kinase SRC in a temperature jump-dependent manner”. The “ABL band in western blotting (activity to decompose/remove ABL)” value on ABL in HEK293 cells is on record as “became fainter”. Besides, at kinase ABL (temperature jump), the “inhibitory activity on ABL compared with DYRK1A” value is “stronger than that on DYRK1A”. For the same compound, the “inhibition of kinase ABL” value against kinase ABL (with and without heating/cooling) is recorded as “strongly inhibited the kinase ABL in a temperature jump-dependent manner”.
